Results published in US4742059A, “Substituted quinoxalinediones and their methods of use” (American Cyanamide Company, priority 1987, dated 1988).
Like-named read-outs stand apart in the source and are kept apart here.

Columns and labels:
[1] = tested on: immunologically stimulated human basophils; experiment: Inhibition of histamine release from immunologically stimulated human basophils; format: cell-based; conditions: 1 h; human basophils challenged with anti-IgE or antigen; 60 minutes at 37° C.; active if ED50 ≤48 μM; read-out: ED50 (concentration which causes a 50% inhibition of histamine release)
Description: The novel compounds of this invention have been tested by the procedure of Lichtenstein, L. M. and Osler, A. G., J. Exp. Med., 120, 507-530 (1964), which evaluated the ability of compounds to inhibit mediator (histamine) release from immunologically stimulated human basophils.
Dissolve 140.3 g of sodium chloride, 7.45 g of potassium chloride and 74.5 g of Trizma-Tris Pre-Set, Reagent Grade, pH 7.6, at 25° C. (Sigma Chemical Co.) in sufficient water to give a final volume of 2 liters.
(Sigma Chemical Co.) (30 mg/ml)
Made to 0.75M and 0.5M respectively, with calcium chloride dihydrate and magnesium chloride hexahydrate.
A 10 ml portion of 10× Tris Buffer and 1.0 ml of human albumin are diluted to 100 ml with water.
A 10 ml portion of 10× Tris Buffer, 1.0 ml of human albumin, 0.8 ml of calcium stock and 0.2 ml of magnesium stock are diluted to 100 ml with water.
Behring Diagnostics (Generally used at […] final concentration).
Strength 1:100 (w:v) allergenic extract, Hollister-Stier Labs. Generally this is diluted 1:1000 to 1:10,000 (considering the vial as stock).
Intradermal solutions of intramuscular preparations for hyposensitization, Hollister-Stier Labs. The final concentration used is on the order of 1 PNU/ml.
Eighty milliliters of blood is withdrawn from subjects with known histamine release to anti-IgE, ragweed antigen or other specific allergen, using four 20 ml heparinized tubes. This 80 ml of blood is mixed with 20 ml of saline containing 0.6 g of dextrose and 1.2 g of dextran. The blood is allowed to sediment at room temperature in two 50 ml polycarbonate centrifuge tubes until a sharp interface develops between the red cells and plasma (60-90 minutes). The plasma (top) layer from each tube is withdrawn by pipet and transferred to respective 50 ml polycarbonate tubes. The plasma is centrifuged for 8 minutes at 110×G at 4° C. The supernatant is carefully poured off as completely as possible and the cell button is resuspended in 2-3 ml of Tris-A buffer using a silconized Pasteur pipet. The resuspension is accomplished by drawing the liquid gently in an out of the pipet, with the tip below the liquid, until and even suspension of cells is obtained. Sufficient Tris-A buffer is then added to bring the volume in the tube to about 45 ml and the tube is centrifuged at 110×G for 8 minutes at 4° C. The supernatant is poured off and the cell button is resuspended and centrifuged as described above. The supernatant is poured off and the cell button suspended in 2-3 ml of Tris-ACM buffer to make the final volume sufficient to allow addition to the reaction tubes.
Reaction tubes containing anti-IgE or antigens, either alone or with test compound in a total volume of 0.2 ml are prepared and placed in a 37° C. bath. The cells are warmed to 37° C. and frequently swirled to ensure and even suspension, while 1.0 ml aliquots are added to each reaction tube. The tubes are then incubated for 60 minutes at 37° C., vortexing the tubes gently every 15 minutes to keep the cells evenly suspended. When the reaction is complete, the tubes are centrifuged at 4° C. for 10 minutes at 1500 rpm to sediment the cells. One ml aliquots of supernatant are transferred to 12 mm by 75 mm polyethylene tubes and 0.2 ml of 8% perchloric acid is added to each tube. Blanks and totals are included in each test. The blanks have cells and all reagents except antigent or anti-IgE. The totals contain 0.24 ml of 8% perchloric acid, one ml of cells and 0.2 ml of buffer. […]

Neutrophil Lipoxygenase = target: T1, Neutrophil Lipoxygenase (Cavia porcellus, UniProt A0A286X958); experiment: Inhibition of neutrophil lipoxygenase (release and biosynthesis of LTB4 and 5-HETE) in guinea pig neutrophils; format: cell-based; conditions: 10 μg/ml compound, 100 μM arachidonic acid and 20 μM calcium ionophore (A23187), the lower the percentage, the more active
T1 construct: peritoneal neutrophils derived from guinea pigs; endogenous in cells; host or cells: guinea pig peritoneal neutrophils
T1 sequence (A0A286X958 1-674): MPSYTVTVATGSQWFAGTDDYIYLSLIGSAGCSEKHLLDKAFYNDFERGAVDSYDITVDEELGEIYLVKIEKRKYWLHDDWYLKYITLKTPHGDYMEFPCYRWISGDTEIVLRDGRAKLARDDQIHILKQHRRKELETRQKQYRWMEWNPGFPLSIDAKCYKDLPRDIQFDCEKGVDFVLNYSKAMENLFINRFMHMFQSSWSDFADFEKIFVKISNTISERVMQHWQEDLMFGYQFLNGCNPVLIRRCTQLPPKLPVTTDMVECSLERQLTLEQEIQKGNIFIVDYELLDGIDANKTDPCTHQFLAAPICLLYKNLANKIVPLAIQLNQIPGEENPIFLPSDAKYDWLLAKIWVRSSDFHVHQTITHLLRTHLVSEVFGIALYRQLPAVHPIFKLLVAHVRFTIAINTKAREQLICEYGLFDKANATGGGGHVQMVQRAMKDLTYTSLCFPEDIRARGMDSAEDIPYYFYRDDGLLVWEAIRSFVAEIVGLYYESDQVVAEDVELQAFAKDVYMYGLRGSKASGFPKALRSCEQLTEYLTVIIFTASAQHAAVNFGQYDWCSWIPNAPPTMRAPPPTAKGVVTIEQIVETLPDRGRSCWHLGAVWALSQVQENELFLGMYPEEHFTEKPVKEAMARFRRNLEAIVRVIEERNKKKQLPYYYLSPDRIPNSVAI
Description: The ability of these compounds to inhibit lipoxygenase activity in terms of the suppression of the release and biosynthesis of leukotriene B4 (LTB4) and 5-hydroxyeicosatetraenoic acid (5-HETE) was measured as follows.
In this assay 3×10^7 peritoneal neutrophils derived from guinea pigs were incubated at 37° C. in Dulbeccos buffer containing 50 mM tris buffer (pH 7.4). Five minutes before the addition of 100 μM arachidonic acid and 20 μM calcium ionophore (A23187), control vehicle or the test compounds were added to the neutrophils at a concentration of 10 μg/ml.
Three minutes after the addition of arachidonic acid and calcium ionophore the total lipid was partitioned into chloroform after adjusting the pH to 3 with citric acid and the addition of equal parts of methanol and chloroform.
The 5-HETE and LTB4 were resolved by HPLC using a 5M, 4×25 cm octadecyl silica column (IBM Instruments) with 70-80% methanol in water adjusted to pH 3.0 with acetic acid. As the mobile phase was pumped at 1.0 ml/minute, LTB4 and 5-HETE were detected by absorbance at 270 and 236 nm, respectively.
LTB4 and 5-HETE were quantitated by comparison with the control and the results were expressed as a percent of control.

[2] = 5-HETE, read-out: 5-HETE, % of Control
[3] = LTB4, read-out: LTB4, % of Control

IC50 [1]	remaining activity at 10 µg/mL (Neutrophil Lipoxygenase; [2])	remaining activity at 10 µg/mL (Neutrophil Lipoxygenase; [3])	Structure (SMILES)
6.6 µM	1.6%	0%	O=C1C=C(N2CCN(c3cccc(C(F)(F)F)c3)CC2)C(=O)c2nccnc21 [6-[4-[3-(Trifluoromethyl)phenyl]-1-piperazinyl]-5,8-quinoxalinedione]
–	22.7%	35.8%	O=C1C=C(N2CCN(c3nc4ccccc4o3)CC2)C(=O)c2ncccc21 [7-[4-(2-Benzoxazolyl)-1-piperazinyl]-5,8-quinolinedione]
–	11.9%	5.7%	O=C1C(N2CCN(c3cccc(C(F)(F)F)c3)CC2)=CC(=O)c2ncccc21 [6-[4-[3-(Trifluromethyl)phenyl]-1-piperazinyl]-5,8-quinolinediones]
–	53.9%	8%	O=C1C=C(N2CCN(Cc3ccccc3)CC2)C(=O)c2nccnc21 [6[4-(Phenylmethyl)-1-piperazinyl]-5,8-quinoxalinedione]

The remaining lines, values behind:

Structure (SMILES)	IC50 [1]	remaining activity at 10 µg/mL (Neutrophil Lipoxygenase; [2])	remaining activity at 10 µg/mL (Neutrophil Lipoxygenase; [3])
CCOC(=O)N1CCN(C2=CC(=O)c3ncccc3C2=O)CC1 [4-(5,8-Dihydro-5,8-dioxo-6-quinolyl)-1-piperazinecarboxylic acid ethyl ester]	17.4 µM	–	–
O=C1C(N2CCN(Cc3ccccc3)CC2)=CC(=O)c2ncccc21 [6-[4-(Phenylmethyl)-1-piperazinyl]-5,8-quinolinedione]	12.1 µM	–	–
O=C1C=C(N2CCN(c3nc4ccccc4s3)CC2)C(=O)c2nccnc21 [6-[4-(2-Benzothiazoyl)-1-piperazinyl]-5,8-quinoxalinedione]	1.2 µM	67.2%	8%
CCOC(=O)N1CCN(C2=CC(=O)c3nccnc3C2=O)CC1 [4-(5,8-dihydro-5,8-dioxo-6-quinoxalinyl)-1-piperazine carboxylic acid ethyl ester]	3.7 µM	–	–
O=C1C(N2CCN(c3nc4ccccc4o3)CC2)=CC(=O)c2ncccc21 [6-[4-(2-Benzoxazolyl)-1-piperazinyl]-5,8-quinolinedione]	–	36.9%	8%
